Measured values: PMC9270327 (Communications Biology, 2022)
Like-named read-outs stand apart in the source and are kept apart here.

What was measured:
[1] = test system: lentiviral pseudoparticles carrying SARS-CoV-2 Beta (B.1.351) spike, Caco-2 cells; type: cell-based; conditions: for SARS-CoV-2 spike driven entry, Mean (0 nM = 100): Fig. 5c
[2] = target: T1, factor Xa (Homo sapiens, UniProt P00742); experiment: Enzyme inhibition assay with purified factor Xa (Ki, dose-response); type: biochemical; conditions: for factor Xa activity, Mean (Fig. 2d): normalized, 0 nM = 100
T1 construct: purchased Bio-Techne GmbH (Wiesbaden, Germany)
Excerpt: (§1) Recombinant human TMPRSS2 was purchased from Creative BioMart (New York, USA) or LSBio (Seattle, USA), factor Xa was obtained from Bio-Techne GmbH (Wiesbaden, Germany). Recombinant human thrombin and matriptase protein were purchased from R&D Systems (Minneapolis, MN, USA).

[3] = target: T2, recombinant human thrombin (Homo sapiens, UniProt P00734); experiment: Enzyme inhibition assay with purified thrombin (Ki, dose-response); type: biochemical; conditions: for thrombin activity, Mean (Fig. 2c): normalized, 0 nM = 100
T2 construct: purchased R&D Systems (Minneapolis, MN, USA)
Excerpt: as §1

[4] = test system: SARS-CoV-2 Wuhan-Hu-1, Caco-2 cells; type: cell-based; conditions: for SARS-CoV-2 infection, Mean (0 nM = 100): Fig. 6a, Wuhan-Hu-1
[5] = test system: lentiviral pseudoparticles carrying SARS-CoV-2 Wuhan-Hu-1 spike, Caco-2 cells; type: cell-based
[6] = target: TMPRSS2 (Homo sapiens, UniProt O15393); experiment: Cell culture medium stability: residual TMPRSS2 inhibition after incubation in medium
Sequence of TMPRSS2 (O15393 whole entry): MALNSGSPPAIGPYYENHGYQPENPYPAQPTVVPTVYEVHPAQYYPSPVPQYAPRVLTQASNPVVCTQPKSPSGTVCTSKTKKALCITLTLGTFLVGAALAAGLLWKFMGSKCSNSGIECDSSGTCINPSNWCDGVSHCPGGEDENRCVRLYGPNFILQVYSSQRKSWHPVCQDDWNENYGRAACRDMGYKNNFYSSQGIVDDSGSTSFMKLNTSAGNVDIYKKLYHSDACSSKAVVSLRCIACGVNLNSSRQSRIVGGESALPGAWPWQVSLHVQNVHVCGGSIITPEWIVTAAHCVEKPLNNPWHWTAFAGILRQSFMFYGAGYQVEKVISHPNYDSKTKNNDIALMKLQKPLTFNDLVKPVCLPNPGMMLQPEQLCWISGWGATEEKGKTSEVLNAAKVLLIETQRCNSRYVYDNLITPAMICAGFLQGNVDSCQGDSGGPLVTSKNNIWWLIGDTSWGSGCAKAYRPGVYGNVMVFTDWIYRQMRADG
Procedure: The activity of the compounds against the recombinant human enzymes was determined in enzyme inhibition assays. […] The measurements were performed on a Tecan infinite® M1000 and the fluorescence intensity was measured by exciting the AMC fluorophore at 380 nm wavelength and recording emission at 460 nm wavelength. […] Fluorescence intensities and absorption were measured every 2 min for 2 h or as endpoint after 2 h. […] To determine the IC50 values, the concentration-response data were plotted with the program GraphPad prism version 8.4.2 (San Diego, California) and a nonlinear regression fit with the equation [Inhibitor] vs. normalized response was applied. The inhibitory constant Ki was calculated from the IC50 values using the Cheng–Prusoff equation (Ki = IC50/[S]/KM) for competitive reversible inhibitors[66].
The stability of the inhibitors was measured according to a modified procedure from ref. [67]. […] At indicated timepoints, 100 µL samples were taken and mixed with 200 µL of ethanol to precipitate proteins. […] The supernatant was aspirated and analyzed using analytical HPLC. The residual inhibitory constants Ki after incubation was assessed by mixing serial dilutions of the inhibitor with recombinant TMPRSS2 as described above.
were mixed with recombinant TMPRSS2, followed by the addition of the fluorogenic reference
Shown are the means ± SD of n=1 experiment performed in triplicates.

T1 sequence (P00742 235-488 limits assumed): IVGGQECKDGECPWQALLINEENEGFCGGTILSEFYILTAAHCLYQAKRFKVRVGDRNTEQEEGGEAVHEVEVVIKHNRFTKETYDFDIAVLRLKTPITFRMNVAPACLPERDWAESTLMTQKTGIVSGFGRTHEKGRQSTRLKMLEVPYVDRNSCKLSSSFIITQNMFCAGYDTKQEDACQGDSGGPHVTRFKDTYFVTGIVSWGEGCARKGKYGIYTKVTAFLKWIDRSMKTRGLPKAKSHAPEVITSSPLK
T1 sequence (P00742 41-179 partner limits assumed): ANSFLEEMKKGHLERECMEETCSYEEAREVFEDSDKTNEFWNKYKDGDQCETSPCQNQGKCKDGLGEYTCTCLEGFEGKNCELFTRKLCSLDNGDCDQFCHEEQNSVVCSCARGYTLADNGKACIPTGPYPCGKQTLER

For ace-Arg-Pro-Arg-kbt [Compound 2], the IC50 ([1]; Caco-2 cells, luciferase 2 days post transduction, read-out: IC50 pseudotyped lentivirus Beta) was 434 nM, the “SARS-CoV-2 spike driven entry, Mean (0 nM = 100)” value (shortened to “SARS-CoV-2 spike driven entry”) ([1]; compound 3.2 nM) was 86.789 and the “SARS-CoV-2 spike driven entry” value ([1]; compound 16 nM) was 76.3745. The “SARS-CoV-2 spike driven entry” value ([1]; compound 80 nM) was 81.347, the “SARS-CoV-2 spike driven entry” value ([1]; compound 400 nM) was 58.1085 and the “SARS-CoV-2 spike driven entry” value ([1]; compound 2000 nM) was 24.7225. The “SARS-CoV-2 spike driven entry” value ([1]; compound 10000 nM) was 3.543, the “SARS-CoV-2 spike driven entry” value ([1]; compound 50000 nM) was 0.923 and the “factor Xa activity, Mean (Fig. 2d)” value ([2]; 0.02 nM) was 109.27. The “factor Xa activity, Mean (Fig. 2d)” value ([2]; 0.04 nM) was 100.653, the “factor Xa activity, Mean (Fig. 2d)” value ([2]; 0.2 nM) was 101.827 and the “factor Xa activity, Mean (Fig. 2d)” value ([2]; 2 nM) was 97.7797. The “factor Xa activity, Mean (Fig. 2d)” value ([2]; 20 nM) was 88.6416, the “factor Xa activity, Mean (Fig. 2d)” value ([2]; 200 nM) was 49.7393 and the “factor Xa activity, Mean (Fig. 2d)” value ([2]; 10000 nM) was 7.702. The “factor Xa activity, Mean (Fig. 2d)” value ([2]; 100000 nM) was 2.742, the Ki ([2]; 30 min preincubation, substrate Bz-Ile-Glu-Gly-Arg-pNA) was 107 nM and the “Selectivity index Factor Xa” value ([2]; quotient Ki factor Xa / Ki TMPRSS2) was 28.1. The “thrombin activity, Mean (Fig. 2c)” value ([3]; 0.02 nM) was 98.5684, the “thrombin activity, Mean (Fig. 2c)” value ([3]; 0.04 nM) was 95.6033 and the “thrombin activity, Mean (Fig. 2c)” value ([3]; 0.2 nM) was 102.761. For the same substance, the “thrombin activity, Mean (Fig. 2c)” value ([3]; 2 nM) was 99.4379, the “thrombin activity, Mean (Fig. 2c)” value ([3]; 20 nM) was 100.358 and the “thrombin activity, Mean (Fig. 2c)” value ([3]; 200 nM) was 86.605. The “thrombin activity, Mean (Fig. 2c)” value ([3]; 10000 nM) was 11.4518, the “thrombin activity, Mean (Fig. 2c)” value ([3]; 100000 nM) was -13.8043 and the Ki ([3]; 30 min preincubation, substrate D-Phe-Homopro-Arg-pNA) was 599 nM. For the same substance, the “Selectivity index Thrombin” value ([3]; quotient Ki thrombin / Ki TMPRSS2) was 158, the “SARS-CoV-2 infection, Mean (0 nM = 100)” value ([4]; compound 32 nM) was 97.173 and the “SARS-CoV-2 infection, Mean (0 nM = 100)” value ([4]; compound 160 nM) was 99.3408. For the same substance, the “SARS-CoV-2 infection, Mean (0 nM = 100)” value ([4]; compound 800 nM) was 95.9056, the “SARS-CoV-2 infection, Mean (0 nM = 100)” value ([4]; compound 4000 nM) was 58.4381 and the “SARS-CoV-2 infection, Mean (0 nM = 100)” value ([4]; compound 20000 nM) was 1.12. For the same substance, the “SARS-CoV-2 infection, Mean (0 nM = 100)” value ([4]; compound 100000 nM) was -2.857, the IC50 ([4]; read-out: IC50 SARS-CoV-2 Wuhan-Hu-1) was 4570 nM and the IC50 ([4]; read-out: IC50 SARS-CoV-2 Wuhan-Hu-1 (text)) was 4600 nM. For the same substance, the “SARS-CoV-2 spike driven entry” value [5] was 93.4665, the IC50 ([5]; Caco-2 cells, luciferase 2 days post transduction, read-out: IC50 pseudotyped lentivirus Wuhan-Hu-1) was 1620 nM and the “SARS-CoV-2 spike driven entry” value ([5]; Fig. 5a, compound 160 nM, […]) was 93.5815. For the same substance, the “SARS-CoV-2 spike driven entry” value ([5]; Fig. 5a, compound 800 nM, […]) was 73.183, the “SARS-CoV-2 spike driven entry” value ([5]; Fig. 5a, compound 4000 nM, […]) was 22.027 and the “SARS-CoV-2 spike driven entry” value ([5]; Fig. 5a, compound 20000 nM, […]) was 3.879. For the same substance, the “SARS-CoV-2 spike driven entry” value ([5]; Fig. 5a, compound 100000 nM, […]) was 2.5725, the “Residual TMPRSS2 activity, Mean (0 nM = 100)” value (“Residual TMPRSS2 activity” for short) ([6]; inhibitor 0.0167 nM, 0 min in cell culture medium) was 98.9717 and the “Residual TMPRSS2 activity” value ([6]; inhibitor 0.0167 nM, 30 min in cell culture medium) was 101.323. For the same substance, the “Residual TMPRSS2 activity” value ([6]; inhibitor 0.0167 nM, 60 min in cell culture medium) was 96.8723, the “Residual TMPRSS2 activity” value ([6]; inhibitor 0.0167 nM, 120 min in cell culture medium) was 98.5343 and the “Residual TMPRSS2 activity” value ([6]; inhibitor 0.0167 nM, 24 h in cell culture medium) was 98.1961. The “Residual TMPRSS2 activity” value ([6]; inhibitor 0.0167 nM, 10 d in cell culture medium) was 98.4437, the “Residual TMPRSS2 activity” value ([6]; inhibitor 0.0167 nM, positive ctrl) was 97.6368 and the “Residual TMPRSS2 activity” value ([6]; inhibitor 0.167 nM, 0 min in cell culture medium) was 100.63. For the same substance, the “Residual TMPRSS2 activity” value ([6]; inhibitor 0.167 nM, 30 min in cell culture medium) was 100.761, the “Residual TMPRSS2 activity” value ([6]; inhibitor 0.167 nM, 60 min in cell culture medium) was 103.84 and the “Residual TMPRSS2 activity” value ([6]; inhibitor 0.167 nM, 120 min in cell culture medium) was 96.4654.
